Experimental data taken from article PMC12645998, “Optimization of VE607 to generate analogs with improved neutralization activities against SARS-CoV-2 variants” (Journal of Virology, 2025).
Like-named read-outs stand apart in the source and are kept apart here.

Key:
[1] = tested on: pseudoviral particles carrying VSV-G; experiment: microbe, parasite or virus in culture; assay type: cell-based; conditions: Vesicular stomatitis virus
[2] = tested on: pseudoviral particles carrying SARS-CoV-1 S; experiment: microbe, parasite or virus in culture; assay type: cell-based
[3] = tested on: pseudoviral particles bearing the Spike glycoprotein from SARS-CoV-2; experiment: microbe, parasite or virus in culture; assay type: cell-based; conditions: pseudovirus, 293T-ACE2 cells, compounds up to 100 µM
[4] = Solubility in phosphate-buffered saline
[5] = tested on: SARS-CoV-2 B.1.1.7 Spike pseudovirus; experiment: organism not typed; assay type: cell-based; conditions: read-out: IC50 B.1.1.7
[6] = tested on: SARS-CoV-2 BA.4/5 Spike pseudovirus; experiment: organism not typed; assay type: cell-based; conditions: read-out: IC50 BA.4/5
[7] = tested on: SARS-CoV-2 XBB.1.5 Spike pseudovirus; experiment: organism not typed; assay type: cell-based; conditions: read-out: IC50 XBB.1.5
[8] = tested on: SARS-CoV-2 XBB.1.16 Spike pseudovirus; experiment: organism not typed; assay type: cell-based; conditions: read-out: IC50 XBB.1.16
[9] = tested on: SARS-CoV-2 BA.2.86 Spike pseudovirus; experiment: organism not typed; assay type: cell-based; conditions: read-out: IC50 BA.2.86
[10] = tested on: SARS-CoV-2 EG.5.1 Spike pseudovirus; experiment: organism not typed; assay type: cell-based; conditions: read-out: IC50 EG.5.1
[11] = tested on: SARS-CoV-2 HK.3 Spike pseudovirus; experiment: organism not typed; assay type: cell-based; conditions: read-out: IC50 HK.3
[12] = tested on: SARS-CoV-2 JN.1 Spike pseudovirus; experiment: organism not typed; assay type: cell-based; conditions: read-out: IC50 JN.1
[13] = tested on: SARS-CoV-2 KP.3.1.1 Spike pseudovirus; experiment: organism not typed; assay type: cell-based; conditions: read-out: IC50 KP.3.1.1
[14] = tested on: SARS-CoV-2 XEC Spike pseudovirus; experiment: organism not typed; assay type: cell-based; conditions: read-out: IC50 XEC
[15] = tested on: authentic SARS-CoV-2 XBB.1; experiment: microbe, parasite or virus in culture; assay type: cell-based; conditions: Severe acute respiratory syndrome coronavirus 2, Vero C1008, read-out: IC50 authentic SARS-CoV-2 XBB.1
[16] = 293T/ACE2, read-out: IC50 VSV-G
[17] = Severe acute respiratory syndrome coronavirus, 293T/ACE2, read-out: IC50 SARS-CoV-1
[18] = Severe acute respiratory syndrome coronavirus 2, 293T/ACE2, read-out: IC50 SARS-CoV-2, Table 1

Compound | IC50 [1, 16] [µM] | IC50 [2, 17] [µM] | IC50 [3, 18] [µM] | other results
O[C@@H](COc1cc(Br)cc(OC[C@H](O)CN2CCCCC2)c1)CN1CCCCC1 [Compound 26] | 2.39 | 0.381 | 0.44 | IC50 ([3]; read-out: IC50 SARS-CoV-2, Table 1): 0.443 µM
C=CCNC[C@@H](O)COc1cc(Br)cc(OC[C@H](O)CNCC=C)c1 [Compound 35] | 26.4 | 0.62 | 0.7 | 
COc1ccc(CNC[C@@H](O)COc2cccc(OC[C@H](O)CNCc3ccc(OC)cc3)c2)cc1 [Compound 22] | 2.85 | 1.85 | 0.57 | 
COc1ccc(CNC[C@@H](O)COc2cc(Br)cc(OC[C@H](O)CNCc3ccc(OC)cc3)c2)cc1 [Compound 38] | 4.09 | 0.66 | 1.03 | 
O[C@@H](COc1cccc(OC[C@H](O)CN2CCC(O)(c3ccc(Cl)cc3)CC2)c1)CN1CCC(O)(c2ccc(Cl)cc2)CC1 [Compound 19] | 1.35 | 1.91 | 0.52 | 
CCN(CC)C[C@@H](O)COc1cc(Br)cc(OC[C@H](O)CN(CC)CC)c1 [Compound 28] | > 100 | 17.5 | 1.79 | 
O[C@H](CNCc1ccc(OC(F)(F)F)cc1)COc1cc(Br)cc(OC[C@H](O)CNCc2ccc(OC(F)(F)F)cc2)c1 [Compound 39] |  |  |  | Solubility in phosphate-buffered saline (PBS) [4]: b Insoluble in phosphate-buffered saline (PBS).
O[C@@H](COc1cccc(OC[C@H](O)CN2CCCCC2)c1)CN1CCCCC1 [(R,R)-VE607, reference compound] | > 100 | 0.8 | 0.98 | IC50 ([1]; 293T/ACE2, read-out: IC50 VSVG): > 100 µM; IC50 ([2]; read-out: IC50 SARS-CoV-1): 0.89 µM; IC50 [5]: 1.17 µM; IC50 [6]: 5.78 µM; IC50 [7]: 0.99 µM; IC50 [8]: 2.03 µM; IC50 [9]: 2.64 µM; IC50 [10]: 1.31 µM; IC50 [11]: 3.88 µM; IC50 [12]: 6.4 µM; IC50 [13]: 4.68 µM; IC50 [14]: 3.9 µM; IC50 [15]: 58.6 µM
CC(C)CNC[C@@H](O)COc1cc(Br)cc(OC[C@H](O)CNCC(C)C)c1 [Compound 36] | 5.05 | 0.22 | 0.32 | 
CN1CCN(C[C@@H](O)COc2ccccc2)CC1 [Compound 48] | > 100 | > 100 | > 100 | 
CN(C)C[C@@H](O)COc1ccccc1 [Compound 45] | > 100 | 13.9 | > 100 | 
CCN(C)C[C@@H](O)COc1cccc(F)c1 [Compound 57] | > 100 | 6.17 | > 100 | 
Cc1cccc(N2CCN(C[C@@H](O)COc3cc(Br)cc(OC[C@H](O)CN4CCN(c5cccc(C)c5)CC4)c3)CC2)c1 [Compound 31] |  |  |  | Solubility in phosphate-buffered saline (PBS) [4]: b Insoluble in phosphate-buffered saline (PBS).
CCN(C)C[C@@H](O)COc1cccc(OC[C@H](O)CN(C)CC)c1 [Compound 20] | > 100 | 0.57 | 1.18 | 
O[C@@H](COc1cc(Br)cc(OC[C@H](O)CN2CCOCC2)c1)CN1CCOCC1 [Compound 29] | > 100 | 30.5 | 2.65 | 
OC(COc1cccc(OCC(O)CN2CCCCC2)c1)CN1CCCCC1 (stereo not shown) [VE607] | > 100 | 0.74 | 2.66 | 
CNC[C@@H](O)COc1cccc(C(C)(C)C)c1 [Compound 60] | > 100 | 45.5 | > 100 | 
CN(C)C[C@@H](O)COc1cccc(OC[C@H](O)CN(C)C)c1 [Compound 15] | 70.7 | 2.54 | 1.64 | 
CN1CCN(C[C@@H](O)COc2cccc(OC[C@H](O)CN3CCN(C)CC3)c2)CC1 [Compound 17] | 74.9 | 19.9 | 1.76 | 
CN1CCN(C[C@@H](O)COc2cccc(C(C)(C)C)c2)CC1 [Compound 65] | > 100 | 22 | 45.7 | 
CC(C)CNC[C@@H](O)COc1cccc(Br)c1 [Compound 50] | > 100 | > 100 | > 100 | 
Cc1cccc(N2CCN(C[C@@H](O)COc3cccc(OC[C@H](O)CN4CCN(c5cccc(C)c5)CC4)c3)CC2)c1 [Compound 18] |  |  |  | Solubility in phosphate-buffered saline (PBS) [4]: b Insoluble in phosphate-buffered saline (PBS).
O[C@H](CNCc1ccncc1)COc1cc(Br)cc(OC[C@H](O)CNCc2ccncc2)c1 [Compound 37] | 3.89 | 1.29 | 1.37 | 
CCN(C)C[C@@H](O)COc1cccc(Br)c1 [Compound 52] | > 100 | 51.8 | > 100 | 
O[C@H](CNCc1ccccc1)COc1cc(Br)cc(OC[C@H](O)CNCc2ccccc2)c1 [Compound 34] | 4.71 | 0.34 | 0.49 | 

Compound | IC50 [1, 16] [µM] | IC50 [2, 17] [µM] | IC50 [3, 18] [µM] | other results
CN(C)C[C@@H](O)COc1cccc(C(C)(C)C)c1 [Compound 62] | > 100 | 0.934 | 84.7 | 
O[C@H](CNCc1ccccc1OC(F)(F)F)COc1cccc(OC[C@H](O)CNCc2ccccc2OC(F)(F)F)c1 [Compound 23] |  |  |  | Solubility in phosphate-buffered saline (PBS) [4]: b Insoluble in phosphate-buffered saline (PBS).
CC(C)CNC[C@@H](O)COc1cccc(F)c1 [Compound 55] | > 100 | > 100 | > 100 | 
CC(C)CNC[C@@H](O)COc1ccccc1 [Compound 44] | > 100 | 5.95 | > 100 | 
CN1CCN(C[C@@H](O)COc2cccc(F)c2)CC1 [Compound 59] | > 100 | > 100 | > 100 | 
O[C@H](CNC1CCOCC1)COc1cc(Br)cc(OC[C@H](O)CNC2CCOCC2)c1 [Compound 40] | > 100 | 0.6 | 3.63 | 
CCN(CC)C[C@@H](O)COc1ccccc1 [Compound 47] | > 100 | > 100 | > 100 | 
CN(C)C[C@@H](O)COc1cccc(Br)c1 [Compound 51] | > 100 | 17.3 | > 100 | 
O[C@@H](COc1cc(Br)cc(OC[C@H](O)CN2CCC(O)(c3ccc(Cl)cc3)CC2)c1)CN1CCC(O)(c2ccc(Cl)cc2)CC1 [Compound 32] |  |  |  | Solubility in phosphate-buffered saline (PBS) [4]: b Insoluble in phosphate-buffered saline (PBS).
CNC[C@@H](O)COc1cccc(OC[C@H](O)CNC)c1 [Compound 25] | 2.69 | 0.45 | > 100 | 
CCN(CC)C[C@@H](O)COc1cccc(F)c1 [Compound 58] | > 100 | > 100 | > 100 | 
O[C@@H](COc1cccc(OC[C@H](O)CN2CCOCC2)c1)CN1CCOCC1 [Compound 16] | > 100 | > 100 | > 100 | 
O[C@H](CNC1CCOCC1)COc1cccc(OC[C@H](O)CNC2CCOCC2)c1 [Compound 24] | 1.38 | > 100 | 0.38 | 
CNC[C@@H](O)COc1cccc(Br)c1 [Compound 49] | > 100 | > 100 | > 100 | 
CCN(C)C[C@@H](O)COc1cccc(C(C)(C)C)c1 [Compound 63] | > 100 | 4.66 | > 100 | 
CCN(C)C[C@@H](O)COc1ccccc1 [Compound 46] | > 100 | > 100 | > 100 | 
C=CCNC[C@@H](O)COc1cccc(OC[C@H](O)CNCC=C)c1 [Compound 21] | > 100 | 41.1 | 47.9 | 
CNC[C@@H](O)COc1ccccc1 [Compound 43] | > 100 | 62.6 | > 100 | 
O[C@@H](COc1ccccc1)CN1CCCCC1 [Compound 42] | > 100 | 0.912 | 1.35 | 
CNC[C@@H](O)COc1cc(Br)cc(OC[C@H](O)CNC)c1 [Compound 41] | > 100 | 0.31 | 1.17 | 
CN(C)C[C@@H](O)COc1cccc(F)c1 [Compound 56] | > 100 | 19.5 | > 100 | 
CN1CCN(C[C@@H](O)COc2cccc(Br)c2)CC1 [Compound 53] | > 100 | > 100 | > 100 | 
CCN(CC)C[C@@H](O)COc1cccc(C(C)(C)C)c1 [Compound 64] | > 100 | 57.4 | > 100 | 
CNC[C@@H](O)COc1cccc(F)c1 [Compound 54] | > 100 | 55 | > 100 | 
CC(C)CNC[C@@H](O)COc1cccc(C(C)(C)C)c1 [Compound 61] | > 100 | 73.7 | > 100 | 
